# Experimental data reported in patent US10738028B2, “Spiro three-membered ring, spiro five-membered ring peptide deformylase inhibitor and use thereof in antibacteria and anti-tumor” (priority 2016, dated 2020).
# Where two headings read alike, the source gives them in different places.
# Assays:
# [1] = system: Enterococcus faecalis (EFA); assay: MIC, two-fold agar dilution (CLSI), clinical isolates; assay type: cell-based
# In short: (§1)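 Samples are serially diluted two-fold in agar following CLSI guidance. Plates are then inoculated with the tested strains. The lowest inhibiting concentration is recorded as MIC.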
# [2] = system: Escherichia coli (including ESBLs, non-ESBLs); assay: as above; assay type: cell-based
# In short: as §1
# [3] = system: methicillin-resistant Staphylococcus aureus (MRSA); assay: as above; assay type: cell-based
# In short: as §1
# [4] = system: methicillin-resistant Staphylococcus epidermidis (MRSE); assay: as above; assay type: cell-based
# In short: as §1
# [5] = system: methicillin-sensitive Staphylococcus aureus (MSSA); assay: as above; assay type: cell-based
# In short: as §1
# [6] = system: methicillin-sensitive Staphylococcus epidermidis (MSSE); assay: as above; assay type: cell-based
# In short: as §1
# [7] = system: HCT-116 colorectal cancer cell line; assay: CCK-8 proliferation inhibition; assay type: cell-based; conditions: for inhibition at 30 µM: Homo sapiens, HCT-116, 72 h, read-out: HCT116 inhibition rate/%
# In short: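 Proliferation over 72 hours of compound treatment was measured with CCK-8 against a 1‰ DMSO control.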
# [8] = system: methemoglobin in blood samples of three healthy volunteers; assay: Toxicity on methemoglobin in vitro (whole blood with S9 and NADPH, absorbance at 630 nm); assay type: cell-based, human; conditions: 500 μM compound; whole blood + S9 + NADPH; 5 hours at 37° C.
# In short: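 Fresh EDTA whole blood from three healthy volunteers incubated 5 h at 37 °C with human liver S9 (2 mg/mL), NADPH-generating system and compound at 500 μM final. Lysed in 1% Triton X-100; MetHb % from 630 nm absorbance relative to ferricyanide-oxidized blood.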
# the test strains = assay: MIC against the test strains (strain not given); assay type: cell-based; conditions: read-out: MIC (azole amide bioisosteres)
# From the text: 1. The invention adopts the two-fold agar dilution method recommended by the operating procedure of antimicrobial susceptibility testing set by American Clinical and Laboratory Standards Institute (CLSI) to determine the Minimum Inhibitory Concentration (MIC) of the test samples against the tested strains.
# [9] = system: Enterococcus faecium (EFM); assay: MIC, two-fold agar dilution (CLSI), clinical isolates; assay type: cell-based
# In short: as §1
# [10] = system: Moraxella catarrhalis (BCA); assay: as above; assay type: cell-based
# In short: as §1
# [11] = system: Streptococcus pneoumoniae (SPN); assay: as above; assay type: cell-based
# In short: as §1
# [12] = system: A549 lung cancer cell line; assay: CCK-8 proliferation inhibition; assay type: cell-based; conditions: Homo sapiens, A549, 72 h, concentration of 30 μM
# In short: (§2)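 Plating at 2000 cells/well, then incubation overnight at 37° C. Next, a range of compound concentrations for 72 hours (control 1‰ DMSO). Finally, medium decanted and CCK-8 diluted 1:10 added.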
# [13] = system: BEL-7402 liver cancer cell line; assay: CCK-8 proliferation inhibition; assay type: cell-based; conditions: concentration of 30 μM
# In short: as §2
# [14] = system: MGC-803 gastric cancer cell line; assay: CCK-8 proliferation inhibition; assay type: cell-based; conditions: concentration of 30 μM
# In short: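 Using media specific to each line (1640 for MGC-803 and Jurkat, F12 for PC3, DMEM high glucose for MCF-7, each with 10% newborn bovine serum), cells at 2000/well were treated for 72 h with serially formulated compounds, then assessed with CCK-8 diluted 1:10.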
structure (smiles),measurement,setting,value
"CCCC[C@H](CN(O)C=O)C(=O)N1CC2(CC2)C[C@H]1c1nc(-c2cccnc2)no1 [Example 11, N-hydroxy-N—((R)-2-((S)-6-(3-(pyridin-3-yl)-1,2,4-oxadiazol-5-yl)-5-azaspiro[2.4]heptane-5-carbonyl)hexyl)carboxamide]",MIC (anti-bacterial activity),[1]; strain EFA 14-1,2 µg/mL
same,MIC (anti-bacterial activity),[1]; strain EFA 14-2,2 µg/mL
same,MIC (anti-bacterial activity),[1]; strain EFA 14-3,2 µg/mL
same,MIC (anti-bacterial activity),[1]; strain EFA 14-5,2 µg/mL
same,MIC (anti-bacterial activity),[2]; strain ECO+ 14-1,1 µg/mL
same,MIC (anti-bacterial activity),[2]; strain ECO+ 14-2,32 µg/mL
same,MIC (anti-bacterial activity),[2]; strain ECO− 14-1,64 µg/mL
same,MIC (anti-bacterial activity),[2]; strain ECO− 14-2,64 µg/mL
same,MIC (anti-bacterial activity),[3]; strain MRSA 14-1,0.5 µg/mL
same,MIC (anti-bacterial activity),[3]; strain MRSA 14-2,0.5 µg/mL
same,MIC (anti-bacterial activity),[3]; strain MRSA 14-4,0.5 µg/mL
same,MIC (anti-bacterial activity),[3]; strain MRSA 14-5,0.5 µg/mL
same,MIC (anti-bacterial activity),"[3]; strain printed MRSA 14-1 (second line of that name, r23, before MRSE 14-2)",0.25 µg/mL
same,MIC (anti-bacterial activity),[4]; strain MRSE 14-2,0.25 µg/mL
same,MIC (anti-bacterial activity),[4]; strain MRSE 14-3,0.125 µg/mL
same,MIC (anti-bacterial activity),[4]; strain MRSE 14-4,0.5 µg/mL
same,MIC (anti-bacterial activity),[5]; strain MSSA 14-1,0.5 µg/mL
same,MIC (anti-bacterial activity),[5]; strain MSSA 14-2,0.5 µg/mL
same,MIC (anti-bacterial activity),[5]; strain MSSA 14-3,0.5 µg/mL
same,MIC (anti-bacterial activity),[5]; strain MSSA 14-4,0.5 µg/mL
same,MIC (anti-bacterial activity),[6]; strain MSSE 14-1,0.125 µg/mL
same,MIC (anti-bacterial activity),[6]; strain MSSE 14-2,0.5 µg/mL
same,MIC (anti-bacterial activity),[6]; strain MSSE 14-3,0.125 µg/mL
same,MIC (anti-bacterial activity),[6]; strain MSSE 14-4,0.5 µg/mL
same,inhibition at 30 µM,[7],17%
same,MetHb % (n = 3),[8],1.26 ± 0.07%
same,MIC,the test strains,0.5 to 2 µg/mL
"O=C(C[C@@H](CC1CCCC1)C(=O)N1CC2(CC2)C[C@H]1c1nc2ccccc2[nH]1)NO [Example 75, (R)-4-((S)-6-(1H-benzimidazol-2-yl)-5-azaspiro[2.4]heptane-5-yl)-3-(cyclopentylmethyl)-N-hydroxy-4-oxobutanamide]",Anti-bacterial activity (MIC),[1]; strain EFA 15-1,> 32 µg/mL
same,Anti-bacterial activity (MIC),[1]; strain EFA 15-2,> 32 µg/mL
same,Anti-bacterial activity (MIC),[1]; strain EFA 15-3,> 32 µg/mL
same,Anti-bacterial activity (MIC),[1]; strain EFA 15-4,> 32 µg/mL
same,Anti-bacterial activity (MIC),[1]; strain EFA 15-5,> 32 µg/mL
same,Anti-bacterial activity (MIC),[1]; strain EFA 15-6,> 32 µg/mL
same,Anti-bacterial activity (MIC),[1]; strain EFA 15-9,> 32 µg/mL
same,Anti-bacterial activity (MIC),[9]; strain EFM 15-1,> 32 µg/mL
same,Anti-bacterial activity (MIC),[9]; strain EFM 15-2,> 32 µg/mL
same,Anti-bacterial activity (MIC),[9]; strain EFM 15-3,> 32 µg/mL
same,Anti-bacterial activity (MIC),[9]; strain EFM 15-4,2 µg/mL
same,Anti-bacterial activity (MIC),[9]; strain EFM 15-5,2 µg/mL
same,Anti-bacterial activity (MIC),[9]; strain EFM 15-6,2 µg/mL
same,"Anti-bacterial activity (MIC), strain ECO+ 15-1",[2]; clinical isolate ECO+ 15-1,16 µg/mL
same,"Anti-bacterial activity (MIC), strain ECO+ 15-2",[2]; clinical isolate ECO+ 15-2,32 µg/mL
same,"Anti-bacterial activity (MIC), strain ECO+ 15-3",[2]; clinical isolate ECO+ 15-3,32 µg/mL
same,"Anti-bacterial activity (MIC), strain ECO+ 15-4",[2]; clinical isolate ECO+ 15-4,16 µg/mL
same,"Anti-bacterial activity (MIC), strain ECO− 15-1",[2]; clinical isolate ECO− 15-1,16 µg/mL
same,"Anti-bacterial activity (MIC), strain ECO− 15-2",[2]; clinical isolate ECO− 15-2,32 µg/mL
same,"Anti-bacterial activity (MIC), strain ECO− 15-3",[2]; clinical isolate ECO− 15-3,32 µg/mL
same,"Anti-bacterial activity (MIC), strain ECO− 15-4",[2]; clinical isolate ECO− 15-4,32 µg/mL
same,Anti-bacterial activity (MIC),[10]; strain BCA 14-1,4 µg/mL
same,Anti-bacterial activity (MIC),[10]; strain BCA 14-4,8 µg/mL
same,Anti-bacterial activity (MIC),[10]; strain BCA 14-5,2 µg/mL
same,Anti-bacterial activity (MIC),[10]; strain BCA 14-6,8 µg/mL
same,Anti-bacterial activity (MIC),[10]; strain BCA 14-7,4 µg/mL
same,Anti-bacterial activity (MIC),[10]; strain BCA 14-8,4 µg/mL
same,Anti-bacterial activity (MIC),[10]; strain BCA 14-10,2 µg/mL
same,Anti-bacterial activity (MIC),[11]; strain SPN 16-2,1 µg/mL
same,Anti-bacterial activity (MIC),[11]; strain SPN 16-4,0.5 µg/mL
same,"Anti-bacterial activity (MIC), strain MRSA 15-1",[3]; clinical isolate MRSA 15-1,1 µg/mL
same,"Anti-bacterial activity (MIC), strain MRSA 15-2",[3]; clinical isolate MRSA 15-2,2 µg/mL
same,"Anti-bacterial activity (MIC), strain MRSA 15-3",[3]; clinical isolate MRSA 15-3,1 µg/mL
same,"Anti-bacterial activity (MIC), strain MRSA 15-4",[3]; clinical isolate MRSA 15-4,1 µg/mL
same,"Anti-bacterial activity (MIC), strain MRSE 15-1",[4]; clinical isolate MRSE 15-1,1 µg/mL
same,"Anti-bacterial activity (MIC), strain MRSE 15-2",[4]; clinical isolate MRSE 15-2,2 µg/mL
same,"Anti-bacterial activity (MIC), strain MRSE 15-3",[4]; clinical isolate MRSE 15-3,4 µg/mL
same,"Anti-bacterial activity (MIC), strain MRSE 15-7",[4]; clinical isolate MRSE 15-7,4 µg/mL
same,"Anti-bacterial activity (MIC), strain MSSA 15-3",[5]; clinical isolate MSSA 15-3,2 µg/mL
same,"Anti-bacterial activity (MIC), strain MSSA 15-4",[5]; clinical isolate MSSA 15-4,0.5 µg/mL
same,"Anti-bacterial activity (MIC), strain MSSA 15-5",[5]; clinical isolate MSSA 15-5,0.5 µg/mL
same,"Anti-bacterial activity (MIC), strain MSSA 15-6",[5]; clinical isolate MSSA 15-6,16 µg/mL
same,"Anti-bacterial activity (MIC), strain MSSE 15-3",[6]; clinical isolate MSSE 15-3,1 µg/mL
same,"Anti-bacterial activity (MIC), strain MSSE 15-4",[6]; clinical isolate MSSE 15-4,1 µg/mL
same,"Anti-bacterial activity (MIC), strain MSSE 15-5",[6]; clinical isolate MSSE 15-5,1 µg/mL
same,"Anti-bacterial activity (MIC), strain MSSE 15-6",[6]; clinical isolate MSSE 15-6,0.5 µg/mL
same,inhibition at 30 µM,"[7]; concentration of 30 μM, 72 hours, CCK-8",> 50%
same,HCT116 inhibition rate/%,"[7]; concentration of 30 μM, 72 hours, CCK-8, 30 µM",59%
same,inhibition at 30 µM,[12],45%
same,inhibition at 30 µM,"[13]; Homo sapiens, Bel-7402, 72 h",> 50%
same,"Inhibition of proliferation, Liver cancer BEL-7402","[13]; 72 hours, 30 µM",70%
same,inhibition at 30 µM,"[14]; Homo sapiens, MGC-803, 72 h",> 50%
same,"Inhibition of proliferation, Gastric cancer MGC-803","[14]; 72 hours, 30 µM",51%
same,MIC,the test strains,0.5 to 2 µg/mL
